From US8058258B2, “Methods for cancer therapy and stem cell modulation” (Agency for Science, Technology and Research, priority 2006, dated 2011)

What was measured:
[1] = test system: Suv39h1; assay: Western blot of Suv39h1 protein levels; type: cell-based, human; conditions: HCT116 or MCF-7 cells, 5 μM, 48 and 72 hours
Description: (§1) Cell lines used in these examples were purchased from the American Type Culture Collection (Manassas, Va.). Cells were maintained in DMEM supplemented with 10% fetal bovine serum with glutamine, penicillin, and streptomycin. For drug treatment, cells were seeded the day before the drug treatment. Cells were treated with 5 μM 3-Deazaneplanocin A or 2 μM 5-aza-2'-deoxycytidine (5-AzaC; Sigma) for 72 hours and trichostatin A (TSA; Sigma) at 100 nM for 24 hours. For co-treatment of cells with 5-AzaC and TSA, 5-Aza was added for 48 hours and followed by TSA for 24 hours. Cell pellets were first lysed in RadioImmuno Precipitation Assay (RIPA) buffer, consisting of an aqueous solution of 25 mM Tris-HCl pH 7.6, 150 mM NaCl, 1% Nonidet-P 40 (NP-40), 1% sodium deoxycholate and 0.1% sodium dodecylsulfate (SDS), before further sonicated using a tissue homogeniser to release all the proteins. Equal amounts of protein were separated on SDS-polyacrylamide gels and transferred to polyvinylidene difluoride (PVDF) membranes. The blots were probed with antibodies against: EED (07-368), SUZ12 (07-379), SUV39H1 (07-550), BMI1 (05-637), tri-methylated H3-K27 (07-449), tri-methylated H3-K9 (07-442) and Acetyl-Histone H3 (06-599), and were purchased from Upstate. EZH2 (AC22) and Histone H3 (3H1) were from Cell Signaling. […]

[2] = test system: histone acetylation; assay: Western blot of histone acetylation; type: cell-based, human; conditions: HCT116 or MCF-7 cells, 5 μM, 48 and 72 hours
Description: as §1

[3] = test system: HCT116 cells; assay: Cell death by PI staining and flow cytometry; type: cell-based; conditions: colorectal cancer HCT116 cells, 5 μM
Description: (§2) FIG. 3A depicts the detection of cell death of a variety of cancer cells upon exposure to 3-deazaneplanocin (DZNep) compared to untreated controls cells (DMSO=dimethyl sulfoxide). Breast cancer MCF-7 and MB-468 cells, colorectal HCT116, RKO and SW480 cells were treated with 5 μm 3-deazaneplanocin for 48 and 72 h, and cell death was detected by means of propodium iodide (PI) staining and flow cytometry analysis. Shown is the average of three independent experiments.
(§3) Cell lines used in these examples were purchased from the American Type Culture Collection (Manassas, Va.). Cells were maintained in DMEM supplemented with 10% fetal bovine serum with glutamine, penicillin, and streptomycin. For drug treatment, cells were seeded the day before the drug treatment. Cells were treated with 5 μM 3-Deazaneplanocin A or 2 μM 5-aza-2′-deoxycytidine (5-AzaC; Sigma) for 72 hours and trichostatin A (TSA; Sigma) at 100 nM for 24 hours. For co-treatment of cells with 5-AzaC and TSA, 5-Aza was added for 48 hours and followed by TSA for 24 hours.
(§4) Cells were trypsinised and washed with PBS and fixed in 70% ethanol and processed for propidium iodide staining and FACS analysis. For the caspase 3 activity assay and mitochondrial membrane potential detection, cells were stained with anti-active caspase 3 and JC-1, respectively, according to the manufacturer's instructions (BD Bioscience).
(§5) It was observed that 3-deazaneplanocin at 5 μM could induce 25% cell death at 48 hours and 45% of cell death at 72 hours, as determined by propodium iodide (PI) staining and flow cytometry analysis (FIG. 3A).

[4] = test system: RKO cells; assay: Cell death by PI staining and flow cytometry; type: cell-based; conditions: colorectal cancer RKO cells, 5 μM
Description: as §2, §3, §4, §5

[5] = test system: MCF10A cells; assay: Apoptosis by FACS analysis in non-cancerous cells; type: cell-based; conditions: 5 μM
Description: Cells were treated with 5 μM 3-deazaneplanocin (DZNep, dark bars) for indicated times.
FIG. 6A depicts an analysis of the breast cancer cell lines MCF-7, MB-468, SK-BR-3, MB-231, T47D and BT549 for an apoptotic effect of 5 μM 3-deazaneplanocin over a time frame of 120 hours. Cell death was measured by FACS analysis. Data presented are the average of three independent experiments.
as §4
To determine whether 3-deazaneplanocin preferentially induces apoptosis in cancer cells, the apoptosis induction between MCF-7 cells and the non-cancerous breast epithelial MCF10A cells was compared for various periods of time. […] In addition, normal primary colon epithelial CC33D cells, like MCF10A cells, were also resistant to 3-deazaneplanocin treatment compared to colorectal cancer HCT116 cell, as evaluated by microscopy examination (FIGS. 3G & 3H).
To extend the observation seen in MCF-7 cells, additional breast cancer cell lines were screened, including MB-468, SK-BR-3, MB-231, T47D and BT549. […]

[6] = test system: PRC2 target genes TGFBI, KRT17, FBXO32, ANXA8, DLX2; assay: Real-time RT-PCR of representative PRC2 targets in MCF-7 cells; type: cell-based, human
Description: I: MCF-7 cells were untreated or treated with 3-deazaneplanocin (DZNep), 5-azacytidine (5-AzaC) or a combination of 5-azacytidine and trichostatin A (AZA+TSA), and RNA was isolated for gene expression analysis.
Total RNA was isolated from cell lines using Trizol (Invitrogen) and was converted to cDNA using an RNA Amplification kit (Ambion). […] Quantitative real-time PCR was performed on a PRISM 7900 sequenced detector (Applied Biosystems) using TaqMan probes (Applied Biosystems). Samples were normalized to the levels of 18S ribosomal RNA.
The array results were further confirmed by real-time RT-PCR for representative PRC2 targets.

[7] = test system: PRC2 target genes in MCF-7, MB-468, SK-BR-3, T47D, MCF10A, MB-231, BT549; assay: Array analysis of PRC2 targets in sensitive and resistant breast cancer cell lines; type: cell-based
Description: FIG. 6B depicts the results of array analysis in these breast cancer cell lines (MCF-7, MB-468, SK-BR-3 and T47D sensitive ? MCF10A, MB-231, BT549 resistant) before and after 3-deazaneplanocin treatment. […] Genes marked in bold are highly expressed in resistant cell lines relative to sensitive cell lines.
Total RNA was isolated from cell lines using Trizol (Invitrogen) and was converted to cDNA using an RNA Amplification kit (Ambion). The microarray hybridisation was performed using the Illumina Gene Expression BeadChip (Illumina) and data analysis was performed using GeneSpring software from Agilent Technologies. Gene expression of normal and primary breast tumor samples was performed using Affymetrix U133A GeneChips (Affymetrix, Santa Clara, Calif.) following the manufacturer's instructions. Gene expression data from individual arrays were normalized by median centering and average linkage hierarchical clustering was done using Cluster and Treeview softwares (http://rana.lbl.gov/EisenSoftware.htm). Quantitative real-time PCR was performed on a PRISM 7900 sequenced detector (Applied Biosystems) using TaqMan probes (Applied Biosystems). Samples were normalized to the levels of 18S ribosomal RNA.
To extend the observation seen in MCF-7 cells, additional breast cancer cell lines were screened, including MB-468, SK-BR-3, MB-231, T47D and BT549. […] To identify the PRC2 target genes associated with the cellular sensitivity to 3-deazaneplanocin, the array analysis was performed in these breast cancer cell lines before and after 3-deazaneplanocin treatment and the expression of the 47 identified PRC2 targets profiled. It was reasoned that some the PRC2 target genes might be differentially expressed between the sensitive and resistant cell lines, which might confer the distinct sensitivity to 3-deazaneplanocin. […] Both the real time and conventional RT-PCR analysis of the 4 gene set confirmed the array data (FIGS. 6D & 6E). […]

Nc1nccc2c1ncn2C1C=C(CO)C(O)C1O (centres unmarked) [3-deazaneplanocin, 5-(4-amino-1H-imidazo[4,5-c]pyridin-1-yl)-3-(hydroxymethyl)-3-cyclopentene-1,2-diol]
Suv39h1 protein levels [1]: not affected
histone acetylation [2]: did not affect
cell death [3]: obvious cell death
cell death [4]: obvious cell death
sensitivity to 3-deazaneplanocin-induced cell death ([5]; MCF10A, time course to 120 hours): highly resistant
apoptosis induction ([5]; non-cancerous breast epithelial MCF10A cells, up to 96 hours): no obvious apoptosis
expression of ANXA8 and DLX2 (real-time RT-PCR) [6]: activated
induction of TGFBI, KRT17 and FBX032 (real-time RT-PCR) [6]: only induced
induction of FBXO32, LAMB3, PLAU, and PPP1R15A ([7]; four sensitive cell lines (MCF-7, MB-468, SK-BR-3, T47D)): commonly induced
induction of the same PRC2 target genes in resistant cell lines ([7]; resistant cell lines (MCF10A, MB-231, BT549)): did not undergo marked further induction
induction of TGFBI, IGFBP3, TNS3 and KRT17 ([7]; sensitive cell lines (MCF-7, MB-468, SK-BR-3, T47D)): induced in 3 out 4 sensitive cell lines
